Data: patent publication US12310975B2, “Modulators of BCL6 proteolysis and associated methods of use” (Arvinas Operations, Inc., priority 2019, dated 2025)

What was measured:
BCL6 [1] = target: T1, BCL6 (Homo sapiens (Human), UniProt P41182); experiment: Immunofluorescence high content imaging of BCL6 degradation in T47D cells; assay type: cell-based; conditions: for Dmax: T47D; for DC50: class symbols A-D, read-out: EC50 (nM)*
Procedure, shortened: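 BCL6 loss was quantified by high-content imaging (10×, 4 fields/well) after PFA fixation and anti-BCL6/Alexa-488 staining with Hoechst nuclear and CellMask counterstains. Compounds were applied for 3 days to T47D breast cancer cells in RPMI-10% FBS, 11 points, 3-fold steps, top 0.1 or 1 μM.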

BCL6 [2] = target: T1, BCL6; experiment: BCL6 TR-FRET assay (BCL6-Avitag-Biotin / BCoR-Cy5 peptide); assay type: binding
Procedure, shortened: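 After 30 min room-temperature preincubation of compound titrations with 2 nM biotinylated BCL6-Avitag, 100 nM Cy5-labelled BCoR peptide plus 2 nM Eu-streptavidin were added and TR-FRET read 2 h later. HEPES pH 7.5/125 mM NaCl buffer with Triton X, glutathione (or DTT) and BSA.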

[3] = class symbols A-D, read-out: IC50 (nM)***

## CC(=O)COc1cc2cc(Nc3nc(N4CCC(CN(C)CC#Cc5ccc6c(c5)C(=O)N(C5CCC(=O)NC5=O)C6=O)CC4)ncc3Cl)ccc2n(C)c1=O (centres unmarked) [compound 176, 5-(3-(((1-(5-chloro-4-((1-methyl-2-oxo-3-(2-oxopropoxy)-1,2-dihydroquinolin-6-yl)amino)pyrimidin-2-yl)piperidin-4-yl)methyl)(methyl)amino)prop-1-yn-1-yl)-2-(2,6-dioxopiperidin-3-yl)isoindoline-1,3-dione]
BCL6 [1]; maximum, class symbols A-C
  Dmax: < 50%
BCL6 [2]; [3]
  IC50: ≥ 100 nM

## CNC(=O)COc1cc2cc(Nc3nc(N4CCN(CC5CC6(C5)CN(c5ccc7c(c5)C(=O)N(C5CCC(=O)NC5=O)C7=O)C6)CC4)ncc3Cl)ccc2n(C(C)C)c1=O (centres unmarked) [compound 523, 2-{[6-({5-chloro-2-[4-({2-[2-(2,6-dioxopiperidin-3-yl)-1,3-dioxo-2,3-dihydro-1H-isoindol-5-yl]-2-azaspiro[3.3]heptan-6-yl}methyl)piperazin-1-yl]pyrimidin-4-yl}amino)-2-oxo-1-(propan-2-yl)-1,2-dihydroquinolin-3-yl]oxy}-N-methylacetamide]
BCL6 [1]
  Dmax: 50 to 70%
BCL6 [2]; read-out: IC50
  IC50: < 10 nM

## CC(=O)COc1cc2cc(Nc3nc(C#CC4CCCN(Cc5ccc6c(c5)C(=O)N(C5CCC(=O)NC5=O)C6=O)C4)ncc3Cl)ccc2n(C)c1=O (centres unmarked) [compound 173, 5-((3-((5-chloro-4-((1-methyl-2-oxo-3-(2-oxopropoxy)-1,2-dihydroquinolin-6-yl)amino)pyrimidin-2-yl)ethynyl)piperidin-1-yl)methyl)-2-(2,6-dioxopiperidin-3-yl)isoindoline-1,3-dione]
BCL6 [1]; maximum, class symbols A-C
  Dmax: < 50%
BCL6 [1]
  DC50: 10 to 50 nM
BCL6 [2]; [3]
  IC50: ≥ 100 nM

## CNC(=O)COc1cc2cc(Nc3nc(N4CCC5(CC4)CN(CC4CCN(c6ccc(C(=O)NC7CCC(=O)NC7=O)c(OC)c6)CC4)C5)ncc3Cl)ccc2n(C(C)C)c1=O (centres unmarked) [compound 447, 4-[4-({7-[5-chloro-4-({3-[(methylcarbamoyl)methoxy]-2-oxo-1-(propan-2-yl)-1,2-dihydroquinolin-6-yl}amino)pyrimidin-2-yl]-2,7-diazaspiro[3.5]nonan-2-yl}methyl)piperidin-1-yl]-N-(2,6-dioxopiperidin-3-yl)-2-methoxybenzamide]
BCL6 [1]
  Dmax: ≥ 70%
BCL6 [2]; read-out: IC50
  IC50: 10 to 50 nM

## CNC(=O)COc1cc2cc(Nc3nc(N4CCN(CC5CC6(C5)CN(c5cccc7c5C(=O)N(C5CCC(=O)NC5=O)C7=O)C6)CC4)ncc3Cl)ccc2n(C(C)C)c1=O (centres unmarked) [compound 529, 2-{[6-({5-chloro-2-[4-({2-[2-(2,6-dioxopiperidin-3-yl)-1,3-dioxo-2,3-dihydro-1H-isoindol-4-yl]-2-azaspiro[3.3]heptan-6-yl}methyl)piperazin-1-yl]pyrimidin-4-yl}amino)-2-oxo-1-(propan-2-yl)-1,2-dihydroquinolin-3-yl]oxy}-N-methylacetamide]
BCL6 [1]
  Dmax: 50 to 70%
BCL6 [2]; read-out: IC50
  IC50: < 10 nM

## CNC(=O)COc1cc2cc(Nc3nc(N4CCN(CC5CCC6(CC5)CN(c5cccc7c5C(=O)N(C5CCC(=O)NC5=O)C7=O)C6)CC4)ncc3Cl)ccc2n(C(C)C)c1=O (centres unmarked) [compound 452, 2-{[6-({5-chloro-2-[4-({2-[2-(2,6-dioxopiperidin-3-yl)-1,3-dioxo-2,3-dihydro-1H-isoindol-4-yl]-2-azaspiro[3.5]nonan-7-yl}methyl)piperazin-1-yl]pyrimidin-4-yl}amino)-2-oxo-1-(propan-2-yl)-1,2-dihydroquinolin-3-yl]oxy}-N-methylacetamide]
BCL6 [1]
  Dmax: ≥ 70%
BCL6 [2]; read-out: IC50
  IC50: < 10 nM

## CNC(=O)COc1cc2cc(Nc3nc(N4CCC[C@H](COc5cccc6c5C(=O)N(C5CCC(=O)NC5=O)C6=O)C4)ncc3Cl)ccc2n(CCC2COC2)c1=O (stereo partly drawn) [compound 504, 2-{[6-({5-chloro-2-[(3S)-3-({[2-(2,6-dioxopiperidin-3-yl)-1,3-dioxo-2,3-dihydro-1H-isoindol-4-yl]oxy}methyl)piperidin-1-yl]pyrimidin-4-yl}amino)-1-[2-(oxetan-3-yl)ethyl]-2-oxo-1,2-dihydroquinolin-3-yl]oxy}-N-methylacetamide]
BCL6 [1]
  Dmax: ≥ 70%
BCL6 [2]; read-out: IC50
  IC50: 50 to 100 nM

## CNC(=O)COc1cc2cc(Nc3nc(N4CCC5(CCN(CC6CCN(c7ccc8c(c7)C(=O)N(C7CCC(=O)NC7=O)C8=O)CC6)CC5)C4)ncc3Cl)ccc2n(C(C)C)c1=O (centres unmarked) [compound 490, 2-{[6-({5-chloro-2-[8-({1-[2-(2,6-dioxopiperidin-3-yl)-1,3-dioxo-2,3-dihydro-1H-isoindol-5-yl]piperidin-4-yl}methyl)-2,8-diazaspiro[4.5]decan-2-yl]pyrimidin-4-yl}amino)-2-oxo-1-(propan-2-yl)-1,2-dihydroquinolin-3-yl]oxy}-N-methylacetamide]
BCL6 [1]
  Dmax: 50 to 70%
BCL6 [2]; read-out: IC50
  IC50: < 10 nM

## CNC(=O)COc1cc2cc(Nc3nc(N4CCN(CC5CCN(c6cccc7c6C(=O)N(C6CCC(=O)NC6=O)C7=O)CC5)CC4)ncc3Cl)ccc2n(C)c1=O (centres unmarked) [compound 207, 2-((6-((5-chloro-2-(4-((1-(2-(2,6-dioxopiperidin-3-yl)-1,3-dioxoisoindolin-4-yl)piperidin-4-yl)methyl)piperazin-1-yl)pyrimidin-4-yl)amino)-1-methyl-2-oxo-1,2-dihydroquinolin-3-yl)oxy)-N-methylacetamide]
BCL6 [1]
  IC50: < 10 nM
  Dmax: ≥ 70%
BCL6 [2]
  EC50: 10 to 50 nM

## CNC(=O)COc1cc2cc(Nc3nc(N4CCC(O[C@H]5C[C@H](COc6ccc7c(c6)C(=O)N(C6CCC(=O)NC6=O)C7=O)N(C)C5)CC4)ncc3Cl)ccc2n(C(C)C)c1=O (stereo partly drawn) [compound 458, 2-[(6-{[5-chloro-2-(4-{[(3S,5R)-5-({[2-(2,6-dioxopiperidin-3-yl)-1,3-dioxo-2,3-dihydro-1H-isoindol-5-yl]oxy}methyl)-1-methylpyrrolidin-3-yl]oxy}piperidin-1-yl)pyrimidin-4-yl]amino}-2-oxo-1-(propan-2-yl)-1,2-dihydroquinolin-3-yl)oxy]-N-methylacetamide]
BCL6 [1]
  Dmax: ≥ 70%
BCL6 [2]; read-out: IC50
  IC50: 50 to 100 nM

## CNC(=O)COc1cc2cc(Nc3nc(N4CCCC(COc5ccc(C6CCN(CC#Cc7ccc8c(c7)CN(C7CCC(=O)NC7=O)C8=O)CC6)cc5)C4)ncc3Cl)ccc2n(C)c1=O (centres unmarked) [compound 167, 2-((6-((5-chloro-2-(3-((4-(1-(3-(2-(2,6-dioxopiperidin-3-yl)-1-oxoisoindolin-5-yl)prop-2-yn-1-yl)piperidin-4-yl)phenoxy)methyl)piperidin-1-yl)pyrimidin-4-yl)amino)-1-methyl-2-oxo-1,2-dihydroquinolin-3-yl)oxy)-N-methylacetamide]
BCL6 [1]; maximum, class symbols A-C
  Dmax: < 50%
BCL6 [1]
  DC50: > 100 nM
BCL6 [2]; [3]
  IC50: 10 to 50 nM

## CNC(=O)COc1cc2cc(Nc3nc(N4CCN(CC5CCN(c6cnc(C(=O)NC7CCC(=O)NC7=O)cn6)CC5)CC4)ncc3Cl)ccc2n(C)c1=O (centres unmarked) [compound 281, 5-[4-({4-[5-chloro-4-({1-methyl-3-[(methylcarbamoyl)methoxy]-2-oxo-1,2-dihydroquinolin-6-yl}amino)pyrimidin-2-yl]piperazin-1-yl}methyl)piperidin-1-yl]-N-(2,6-dioxopiperidin-3-yl)pyrazine-2-carboxamide]
BCL6 [1]
  IC50: < 10 nM
  Dmax: < 50%
BCL6 [2]
  EC50: 10 to 50 nM

## CC(=O)COc1cc2cc(Nc3nc(N4CCC(N5CCC(N(C)CCOc6ccc7c(c6)CN(C6CCC(=O)NC6=O)C7=O)C5)CC4)ncc3Cl)ccc2n(C)c1=O (centres unmarked) [compound 157, 3-(5-(2-((1-(1-(5-chloro-4-((1-methyl-2-oxo-3-(2-oxopropoxy)-1,2-dihydroquinolin-6-yl)amino)pyrimidin-2-yl)piperidin-4-yl)pyrrolidin-3-yl) (methyl)amino)ethoxy)-1-oxoisoindolin-2-yl)piperidine-2,6-dione]
BCL6 [1]; maximum, class symbols A-C
  Dmax: 50 to 70%
BCL6 [1]
  DC50: 10 to 50 nM
BCL6 [2]; [3]
  IC50: < 10 nM

## CNC(=O)COc1cc2cc(Nc3nc(N4CCC(CN5CCC6(CCN(c7ccc8c(c7)C(=O)N(C7CCC(=O)NC7=O)C8=O)CC6)C5)CC4)ncc3Cl)ccc2n(C(C)C)c1=O (centres unmarked) [compound 494, 2-{[6-({5-chloro-2-[4-({8-[2-(2,6-dioxopiperidin-3-yl)-1,3-dioxo-2,3-dihydro-1H-isoindol-5-yl]-2,8-diazaspiro[4.5]decan-2-yl}methyl)piperidin-1-yl]pyrimidin-4-yl}amino)-2-oxo-1-(propan-2-yl)-1,2-dihydroquinolin-3-yl]oxy}-N-methylacetamide]
BCL6 [1]
  Dmax: 50 to 70%
BCL6 [2]; read-out: IC50
  IC50: < 10 nM

## CNC(=O)COc1cc2cc(Nc3nc(N4CC5(CCN(CC6CCN(c7cccc8c7C(=O)N(C7CCC(=O)NC7=O)C8=O)CC6)C5)C4)ncc3Cl)ccc2n(C(C)C)c1=O (centres unmarked) [compound 511, 2-{[6-({5-chloro-2-[6-({1-[2-(2,6-dioxopiperidin-3-yl)-1,3-dioxo-2,3-dihydro-1H-isoindol-4-yl]piperidin-4-yl}methyl)-2,6-diazaspiro[3.4]octan-2-yl]pyrimidin-4-yl}amino)-2-oxo-1-(propan-2-yl)-1,2-dihydroquinolin-3-yl]oxy}-N-methylacetamide]
BCL6 [1]
  Dmax: ≥ 70%
BCL6 [2]; read-out: IC50
  IC50: < 10 nM

## CNC(=O)COc1cc2cc(Nc3nc(N4CCC(OC5CN(c6ccc7c(c6)C(=O)N(C6CCC(=O)NC6=O)C7=O)C5)CC4)ncc3Cl)ccc2n(C)c1=O (centres unmarked) [compound 227, 2-((6-((5-chloro-2-(4-((1-(2-(2,6-dioxopiperidin-3-yl)-1,3-dioxoisoindolin-5-yl)azetidin-3-yl)oxy)piperidin-1-yl)pyrimidin-4-yl)amino)-1-methyl-2-oxo-1,2-dihydroquinolin-3-yl)oxy)-N-methylacetamide]
BCL6 [1]
  IC50: < 10 nM
  Dmax: < 50%
BCL6 [2]
  EC50: > 100 nM
